Values joined by “and” are separate entries in the source; they are usually repeats but may differ in a detail not shown here. Identical values can stand only once.
Experiment: solvent given as SMILES

## CCCCCCCCCCCCC(CCCCCCCCCC)Cn1c2cc(/C=C/C=C/c3nc4ccccc4s3)c3cccc4c5cccc6c(/C=C/C=C/c7nc8ccccc8s7)cc1c(c65)c2c34 (stereo not drawn)
In C1CCCCC1
  emission maximum: 588 nm
In CC#N
  emission maximum: 608 nm
In Cc1ccccc1
  emission maximum: 604 nm
In ClCCl
  emission maximum: 612 nm

## CCCCCCOc1ccc2c(c1)-c1cc3c(cc1[Si]2(C)C)-c1ccccc1[Si]3(C)C
In ClCCl
  emission maximum: 387 nm

## CC1=CC(C)=[N+]2C1=C(C)c1cccn1[B-]2(F)F
In CCCCCC
  emission maximum: 498 nm
In CO
  emission maximum: 497 nm
In ClCCl
  emission maximum: 500 nm

## Cc1ccc2nc3cc4c(cc3c(-c3ccccc3)c2c1)[Si](C)(C)O[Si]4(C)C
In ClCCl
  emission maximum: 504 nm

## CN(C)c1ccc(-c2ccc(C#N)s2)s1
In CCO
  emission maximum: 510 nm

## C[P+]1(c2ccccc2)c2ccccc2-c2sc3ccccc3c21 (stereo not drawn)
In CC#N
  emission maximum: 442 nm
In CCO
  emission maximum: 442 nm
In ClCCl
  emission maximum: 445 nm

## FC(F)(F)c1c(-n2c3ccccc3c3ccccc32)c(-n2c3ccccc3c3ccccc32)c(-n2c3ccccc3c3ccccc32)c(-n2c3ccccc3c3ccccc32)c1-n1c2ccccc2c2ccccc21
In ClCCl
  emission maximum: 481 nm

## CCCCn1c(-c2ccc(-c3nnc(-c4ccc5ccccc5c4)o3)cc2)nc(-c2ccccc2)c1-c1ccccc1
In ClCCl
  emission maximum: 445 nm

## CCCCOC(=O)/C(C#N)=C1\C(=CC2=[N+](C)c3ccccc3C2(C)C)C([O-])=C1C=C1N(C)c2ccccc2C1(C)C
In ClC(Cl)Cl
  emission maximum: 708 nm

## Cc1ccc(-n2c(-c3ccccc3N)nc3c4ccccc4c4ccccc4c32)cc1
In Cc1ccccc1
  emission maximum: 396 nm

## Cc1c(C)c(B(c2c(C)c(C)c(N3c4ccccc4Oc4ccccc43)c(C)c2C)c2c(C)c(C)c(N3c4ccccc4Oc4ccccc43)c(C)c2C)c(C)c(C)c1C#N
In c1ccc([Si](c2ccccc2)(c2ccc(-n3c4ccccc4c4ccccc43)cc2)c2ccc(-n3c4ccccc4c4ccccc43)cc2)cc1
  emission maximum: 517 nm

## CCOc1ccc(/C=C/c2nc(N3CCOCC3)c3c([n+]2[O-])CCCC3)cc1
In ClCCl
  emission maximum: 515 nm

## N#Cc1ccc(/C=C2\C=C(c3ccccc3)OC2=O)cc1
In C1COCCO1
  emission maximum: 494 nm

## CC1(C)c2ccccc2N(c2ccc3c(c2)S(=O)(=O)c2cc(N4c5ccccc5C(C)(C)c5ccccc54)ccc2C3(C)C)c2ccccc21
In Cc1ccccc1
  emission maximum: 466.12 nm
In ClCCl
  emission maximum: 506 nm

## CN(C)c1ccc(/C=C/c2cc(/C=C/c3ccc(N(C)C)cc3)ncn2)cc1
In ClCCl
  emission maximum: 530 nm

## CCCCN(CCCC)c1ccc(C#Cc2cc(C#Cc3ccc(N(CCCC)CCCC)cc3)c(C#Cc3ccc([N+](=O)[O-])cc3)cc2C#Cc2ccc([N+](=O)[O-])cc2)cc1
In ClCCl
  emission maximum: 552 nm

## c1ccc2cc3cc(-c4cc(-c5nccs5)nc(-c5nccs5)c4)ccc3cc2c1
In CC#N
  emission maximum: 474 nm
In CCCCCC
  emission maximum: 376 nm
In CO
  emission maximum: 377 nm
In ClC(Cl)Cl
  emission maximum: 452 nm

## F[B-]1(F)n2c(c3cc4ccccc4cc3c2-c2ccccc2)C=C2c3cc4ccccc4cc3C(c3ccccc3)=[N+]21
In C1CCOC1
  emission maximum: 782 nm
In CN(C)C=O
  emission maximum: 788 nm
In ClCCl
  emission maximum: 785 nm
In c1ccccc1
  emission maximum: 785 nm

## CN(C)c1ccc(/C=C/c2cccnn2)cc1
In C1CCOC1
  emission maximum: 476 nm
In CC#N
  emission maximum: 509 nm
In CCCCCCC
  emission maximum: 459 nm
In CS(C)=O
  emission maximum: 518 nm
In ClCCl
  emission maximum: 480 nm

## Cc1ccccc1C1=C2C=CC(=[N+](C)C)C=C2[Si](C)(C)c2cc(N(C)C)ccc21
In O
  emission maximum: 660 nm

## N#Cc1cccc(-c2pc3ccccc3s2)c1 (stereo not drawn)
In CC#N
  emission maximum: 432 nm

## N#CC(C#N)=Cc1ccc(-c2ccc(O)c(-c3nc4ccccc4s3)c2)o1
In CCO
  emission maximum: 632 nm
In ClCCl
  emission maximum: 612 nm
In O
  emission maximum: 652 nm

## O=Cc1ccc(-c2cccc(-c3nc4ccccc4s3)c2O)s1
In CCO
  emission maximum: 576 nm
In ClCCl
  emission maximum: 566 nm
In O
  emission maximum: 595 nm

## CN(C)c1ccc(-c2nc(-c3ccccc3)c3ccccn23)cc1
In C1CCCCC1
  emission maximum: 482 nm
In CC#N
  emission maximum: 509 nm
In CO
  emission maximum: 500 nm
In ClCCl
  emission maximum: 495 nm
In O
  emission maximum: 512 nm

## C1=Cc2ccc3ccccc3c2NB1c1ccccc1
In C1CCCCC1
  emission maximum: 383 nm

## CCCCCCOc1ccc(N(c2ccc(OCCCCCC)cc2)c2ccc(-c3sc(-c4ccc(N(c5ccc(OCCCCCC)cc5)c5ccc(OCCCCCC)cc5)cc4)c4nc(CC)c(CC)nc34)cc2)cc1
In ClCCl
  emission maximum: 725 nm

## c1ccc2c(c1)c1ccccc1n2-c1cc(-c2nc3ccccn3n2)cc(-n2c3ccccc3c3ccccc32)c1
In Cc1ccccc1
  emission maximum: 373 nm

## F[Si-](F)(c1ccccc1)(c1ccccc1)c1c2ccccc2cc2ccccc12
In C1CCOC1
  emission maximum: 399 nm

## N#Cc1c(N2CCCCC2)cc(-c2ccc(Br)s2)c2c1CCc1ccccc1-2
In C1CCOC1
  emission maximum: 493 nm

## O=C(O)c1ccc(C2=C(/C=C/c3[se]c4ccccc4[n+]3CCCCS(=O)(=O)[O-])CCC/C2=C\C=C2/[Se]c3ccccc3N2CCCCS(=O)(=O)[O-])cc1
In CO
  emission maximum: 813 nm

## Cc1ccc(-c2ccc3ccc4cc(C(C)(C)C)cc5ccc2c3c45)cc1
In C1CCOC1
  emission maximum: 384 nm
In ClCCl
  emission maximum: 384 nm

## O=Cc1cc(O)ccc1O
In CC(C)=O
  emission maximum: 423 nm
In CCCO
  emission maximum: 484 nm
In CCO
  emission maximum: 487 nm
In CN(C)C=O
  emission maximum: 440 nm
In CN(C)P(=O)(N(C)C)N(C)C
  emission maximum: 438 nm
In CNC=O
  emission maximum: 479 nm
In CS(C)=O
  emission maximum: 446 nm
In NC=O
  emission maximum: 490 nm

## c1ccc(-c2cc3cc4cccc5c(-c6ccccc6)cc6cc7cccc2c7c3c6c45)cc1
In ClCCl
  emission maximum: 442 nm

## CC(C)(C)c1ccc(-c2nc(-c3ccc(-n4c5ccccc5c5c6oc7ccccc7c6ccc54)cc3)nc(-c3ccc(C(C)(C)C)cc3)n2)cc1
In C1CCOC1
  emission maximum: 415.2 nm

## CC[B-]1(CC)c2cccc3cc4ccccc4c(c23)-c2cccc(C)[n+]21
In ClCCl
  emission maximum: 538 nm

## Cc1cn(CCCn2cc(C)c(=O)[nH]c2=O)c(=O)nc1-n1cncn1
In O
  emission maximum: 382 nm

## Oc1ccccc1/C=N/c1ccccc1/N=C/c1ccccc1O
In CC#N
  emission maximum: 545 nm and 458 nm

## COc1ccc(-c2nc3c([nH]2)=C2C=C(Cl)S[C@@]2(C)[C@]2(C)SC(Cl)=CC=32)cc1
In CC#N
  emission maximum: 378 nm

## COc1ccc(N(c2ccc(OC)cc2)c2ccc(-c3ccc(C=C(C#N)C#N)o3)cc2)cc1
In ClC(Cl)Cl
  emission maximum: 696 nm

## COCCC1=Cc2nc1ccc1[nH]c(cc1CCOC)c1nc(c(N3C(=O)CCCC3=O)cc3[nH]c2cc3CCOC)C(CCOC)=C1
In Cc1ccccc1
  emission maximum: 646 nm

## COc1ccc(-c2cc3c(s2)c(C(C)=O)cc(=O)n3Cc2ccccc2)cc1
In CC#N
  emission maximum: 515 nm
In ClCCl
  emission maximum: 512 nm

## CN(C)c1ccc2nc3c(cc2c1)c(-c1ccccc1)nn3-c1ccccc1
In C1CCCCC1
  emission maximum: 444.44 nm
In C1CCOC1
  emission maximum: 534.19 nm
In CC#N
  emission maximum: 561.48 nm
In CC(C)=O
  emission maximum: 552.79 nm
In CCCCCl
  emission maximum: 516 nm
In CCCCOCCCC
  emission maximum: 498.75 nm
In CN(C)C=O
  emission maximum: 566.89 nm

## Cc1cc(O)c(C(C)C)cc1/N=C/c1ccc(C(F)(F)F)cc1
In C1CCCCC1
  emission maximum: 398 nm
In C1CCOC1
  emission maximum: 426 nm
In C1COCCO1
  emission maximum: 424 nm
In CC#N
  emission maximum: 425 nm
In CC(C)(C)O
  emission maximum: 431 nm
In CC(C)O
  emission maximum: 434 nm
In CCCCCC
  emission maximum: 401 nm
In CCCCO
  emission maximum: 436 nm
In CCO
  emission maximum: 429 nm
In CCOC(C)=O
  emission maximum: 421 nm
In CN(C)C=O
  emission maximum: 434 nm
In CO
  emission maximum: 434 nm
In CS(C)=O
  emission maximum: 439 nm
In ClC(Cl)Cl
  emission maximum: 430 nm
In ClCCl
  emission maximum: 424 nm
In O
  emission maximum: 449 nm
In OCCO
  emission maximum: 438 nm

## c1ccc(-c2nc(-c3ccccc3)nc(-c3ccc(-n4c5ccccc5c5cc6c(cc54)c4ccccc4n6-c4ccccc4)cc3)n2)cc1
In Cc1ccccc1
  emission maximum: 478 nm
In O=P(c1ccccc1)(c1ccccc1)c1ccc2oc3ccc(P(=O)(c4ccccc4)c4ccccc4)cc3c2c1
  emission maximum: 511 nm

## CN(C)c1ccc(-c2nc(-c3ccc(N(C)C)cc3)c3ccccc3n2)cc1
In C1CCCCC1
  emission maximum: 436 nm
In C1CCOC1
  emission maximum: 528 nm
In CC#N
  emission maximum: 571 nm
In CS(C)=O
  emission maximum: 575 nm
In ClCCl
  emission maximum: 530 nm

## O=C(c1ccncc1)c1ccc(-n2c3ccccc3c3ccccc32)cc1
In Cc1ccccc1
  emission maximum: 440 nm
In c1cc(-c2cccc(-n3c4ccccc4c4ccccc43)c2)cc(-n2c3ccccc3c3ccccc32)c1
  emission maximum: 457.34 nm

## CN(C)c1ccc(C2=C3C=C(c4ccc(C=O)cc4)S[C@]34c3ccccc3[C@H]2c2ccccc24)cc1
In ClCCl
  emission maximum: 645 nm

## CN(C)c1ccc(/C=C/c2nc3cc(Br)ccc3nc2-c2ccccc2)cc1
In C1COCCO1
  emission maximum: 555 nm
In CC#N
  emission maximum: 643 nm
In ClCCl
  emission maximum: 601 nm

## O=C1c2ccccc2C2=Cc3ccccc3B(O)N12
In CC#N
  emission maximum: 432 nm
In CO
  emission maximum: 430 nm
In CS(C)=O
  emission maximum: 438 nm
In ClC(Cl)Cl
  emission maximum: 437 nm

## c1ccc(N(c2ccccc2)c2ccc(-c3nc(-c4ccc(N(c5ccccc5)c5ccccc5)cc4)c4ccccc4n3)cc2)cc1
In C1CCCCC1
  emission maximum: 447 nm
In C1CCOC1
  emission maximum: 518 nm
In CC#N
  emission maximum: 565 nm
In CS(C)=O
  emission maximum: 568 nm
In ClCCl
  emission maximum: 534 nm

## CC1=CC(C)=[N+]2C1=C(c1ccc(-c3ccc(OS(=O)(=O)c4ccc([N+](=O)[O-])cc4[N+](=O)[O-])cc3)s1)c1c(C)cc(C)n1[B-]2(F)F
In CO
  emission maximum: 523 nm
In Cc1ccccc1
  emission maximum: 530 nm
In ClCCl
  emission maximum: 528 nm

## CCCC1=Cc2nc1ccc1[nH]c(cc1CCOC)c1nc(ccc3[nH]c2cc3CCC)C(CCOC)=C1
In Cc1ccccc1
  emission maximum: 642 nm

## CN(C)CCCN1c2ccccc2Sc2ccc(Cl)cc21
In CC#N
  emission maximum: 451 nm
In CO
  emission maximum: 449 nm
In O
  emission maximum: 453 nm

## CCOC(=O)c1cc(C(=O)OCC)c2ccc(O)cc2n1
In CCO
  emission maximum: 474 nm

## c1ccc2c(-c3ccc4sc5ccc(-c6c7ccccc7cc7ccccc67)cc5c4c3)c3ccccc3cc2c1
In C1CCCCC1
  emission maximum: 399.14 nm
In CC#N
  emission maximum: 402.78 nm
In ClCCl
  emission maximum: 408.25 nm
